Experimental data reported in publication PMC3580045 (Journal of pharmacy & pharmaceutical sciences : a …, 2012).
Read-outs that look alike come from different tables or passages of the source. Marks after values point to notes of the source that are not given here.

Experiments:
[1] = mean ± SD; cited from earlier work
[2] = mean ± SD; cited from earlier work; remark: listed apart in the source
[3] = Hydrolysis in human non-tumor liver tissue homogenate; format: in vitro ADME; settings: for Half-lives, Human non-Tumor Liver Tissue Homogenate: mean ± SD, n = 3, NA = no significant degradation
[4] = Hydrolysis in Caco-2 cell homogenate; format: in vitro ADME, human; settings: for Half-lives, Caco-2 Cell Homogenate: pH 7.4 phosphate buffer, 37°C, mean ± SD, n = 3, NA = no significant degradation
[5] = pH 7.4 phosphate buffer, 37°C; mean ± SD; cited from earlier work
[6] = Stability in human liver microsomes; settings: for Half-lives, Human Liver Microsomes: mean ± SD, n = 3, NA = no significant degradation
[7] = Hydrolysis in human small intestinal; format: in vitro ADME
[8] = Hydrolysis in AsPC-1 cell homogenate; format: in vitro ADME; settings: human, pH 7.4
[9] = Hydrolysis in Capan-2 cell homogenate; format: in vitro ADME, human
[10] = reported by several groups; cited from earlier work
[11] = Hydrolysis in human pancreas; format: in vitro ADME; settings: human pancreas tissue homogenate
[12] = Hydrolysis in human tumor liver tissue homogenate; format: in vitro ADME; settings: mean ± SD, n = 3; NA = no significant degradation
[13] = phosphate buffer

| Compound | Half-lives, Human non-Tumor Liver Tissue Homogenate [3] | Half-lives, Caco-2 Cell Homogenate [4] | Half-lives, Human Liver Microsomes [6] | Half-lives, Human Tumor Liver Tissue Homogenate [12] | Half-lives, AsPC-1 Cell Homogenate [1] | Half-lives, Capan-2 Cell Homogenate [2] | Half-lives, Buffer pH 7.4 [5] | further results |
| --- | --- | --- | --- | --- | --- | --- | --- | --- |
| N[C@@H](Cc1ccccc1)C(=O)OC[C@H]1O[C@@H](n2cc(F)c(=O)[nH]c2=O)C[C@@H]1O [5′-O-L-phenylalanyl-floxuridine] | 3.2 ± 1.2 min | 12.2 ± 0.1 min | 1.3 ± 0.4 min | – | 11.8 ± 1.7 ^b min | 3.0 ± 0.1 ^b min | 187.0 ± 19.0 ^b min | – |
| O=c1[nH]c(=O)n([C@H]2C[C@H](O)[C@@H](CO)O2)cc1F [Floxuridine, 5-fluoro-2′-deoxyuridine, reference compound] | – | – | – | – | – | – | – | half-life ([7]; human, pH 7.4): 14 ± 4 min; half-life [8]: 6.4 ± 3.2 min; half-life ([3]; human, human non-tumor liver tissue homogenate, pH 7.4): 5 ± 2.4 min; half-life ([9]; human, Capan-2 cell homogenate, pH 7.4): 17.8 ± 5.8 min; fold higher potency than 5-FU [10]: 10- to 100 fold; half-life ([4]; human, Caco-2, pH 7.4): 14.3 ± 7 min; stability (in words) [11]: good stability; half-life ([11]; human, non-tumor, pH 7.4): 209 ± 19.4 min; half-life ([6]; human, human liver microsomes): < 0.2 min |
| N[C@@H](Cc1ccccc1)C(=O)N[C@@H](Cc1ccc(O)cc1)C(=O)OC[C@H]1O[C@@H](n2cc(F)c(=O)[nH]c2=O)C[C@@H]1O [5′-O-L-phenylalanyl-L-tyrosyl-floxuridine] | 358.3 ± 20.3 min | 115.2 ± 54.2 min | 253.0 ± 36.2 min | 241.4 ± 5.1 min | 59.7 ± 1.4 ^b min | 42.8 ± 0.0 ^b min | 233.9 ± 6.6 ^b min | – |
| CC[C@H](C)[C@H](N)C(=O)OC[C@H]1O[C@@H](n2cc(F)c(=O)[nH]c2=O)C[C@@H]1O [5′-O-L-isoleucyl-floxuridine] | 5.2 ± 0.1 min | 131.6 ± 48.4 min | 19.4 ± 7.8 min | < 0.2 min ^∞ | 198.0 ± 70.2 ^b min | 139.9 ± 15.3 ^b min | 323.5 ± 1.5 ^a min | – |
| CC(C)[C@@H](N)C(=O)OC[C@H]1O[C@@H](n2cc(F)c(=O)[nH]c2=O)C[C@@H]1O [5′-O-D-valyl-floxuridine] | 19.0 ± 0.2 min | 220.4 ± 64.0 min | 705.9 ± 64.2 min | 9.4 ± 0.5 ^∞ min | 290.9 ± 48.9 ^a min | – | 344.9 ± 10.2 ^a min | fold more stable than 5′-O-L-valyl-floxuridine ([7]; human intestinal tissue homogenate): 11.3 fold; fold better stability than 5′-O-L-valyl-floxuridine ([3]; human liver tissue homogenates (non-tumor and tumor)): 3- to 10 fold; Half-lives, Capan-2 Cell Homogenate ([9]; mean ± SD, n = 3, NA = no significant degradation): 188.3 ± 12.1 min; fold more stable than 5′-O-L-valyl-floxuridine ([4]; Caco-2 homogenate): 16.1 fold; fold better stability than 5′-O-L-valyl-floxuridine ([6]; human liver microsomes): 243 fold; fold more stable in human liver microsomes than in human liver tissue homogenates ([6]; microsomes vs liver tissue homogenates): at least 37 fold |
| N[C@@H](Cc1ccccc1)C(=O)NCC(=O)OC[C@H]1O[C@@H](n2cc(F)c(=O)[nH]c2=O)C[C@@H]1O [5′-O-L-phenylalanyl-L-glycyl-floxuridine] | 3.2 ± 0.3 min | 2.9 ± 0.5 min | 15.9 ± 1.9 min | – | 10.2 ± 0.3 ^b min | 4.3 ± 0.9 ^b min | 132.1 ± 10.2 ^b min | – |
| CC(C)C[C@H](N)C(=O)OC[C@H]1O[C@@H](n2cc(F)c(=O)[nH]c2=O)C[C@@H]1O [5′-O-L-leucyl-floxuridine] | < 0.2 min | 3.3 ± 0.9 min | 0.8 ± 0.1 min | – | 2.0 ± 0.1 ^a min | 4.7 ± 2.1 ^b min | 83.2 ± 1.7 ^b min | – |
| O=C(O[C@H]1C[C@H](n2cc(F)c(=O)[nH]c2=O)O[C@@H]1CO)[C@@H]1CCCN1 [Floxuridine-3′-L-proline] | – | – | – | – | – | – | – | stability (in words) ([7]; human small bowel tissue homogenate): stable; stability (in words) [13]: stable; degradation (in words) ([3]; human liver tissue homogenate, over 2 hr): no significant degradation; stability (in words) ([4]; Caco-2 cell homogenate): stable; degradation (in words) ([6]; human liver microsomes, over 2 hr): no significant degradation |

Continued, in another order:

| Half-lives, Human non-Tumor Liver Tissue Homogenate [3] | Half-lives, Caco-2 Cell Homogenate [4] | Half-lives, Human Liver Microsomes [6] | Half-lives, Human Tumor Liver Tissue Homogenate [12] | Compound | Half-lives, AsPC-1 Cell Homogenate [1] | Half-lives, Capan-2 Cell Homogenate [2] | Half-lives, Buffer pH 7.4 [5] | further results |
| --- | --- | --- | --- | --- | --- | --- | --- | --- |
| 2.0 ± 0.3 min | 13.7 ± 2.0 min | 2.9 ± 0.1 min | 3.5 ± 0.2 ^∞ min | CC(C)[C@H](N)C(=O)OC[C@H]1O[C@@H](n2cc(F)c(=O)[nH]c2=O)C[C@@H]1O [5′-O-L-valyl-floxuridine] | 18.7 ± 6.7 ^b min | 5.2 ± 2.4 ^b min | 304.0 ± 33.3 ^b min | – |
| 2.2 ± 0.0 min | 57.6 ± 9.3 min | 24.7 ± 2.4 min | < 0.2 min ^* ^∞ | CC(C)[C@H](N)C(=O)N[C@@H](Cc1ccccc1)C(=O)OC[C@H]1O[C@@H](n2cc(F)c(=O)[nH]c2=O)C[C@@H]1O [5′-O-L-valyl-L-phenylalanyl-floxuridine] | 51.6 ± 4.2 ^b min | 56.2 ± 12.8 ^b min | 104.7 ± 7.0 ^b min | – |
